In PubChem BioAssay (NCI):
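Growth conditions: 96-well plates. Treatment: test compound, 48 hours, 5 concentrations. Analysis: linear interpolation between bracketing concentrations; unreached endpoints set to highest concentration. GI50 is the concentration that inhibits growth by half. TGI: concentration producing complete growth inhibition.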

How the values were obtained:
Test in all cases: growth of human tumour cells (NCI), 48 h
786-0 renal = tested on: 786-0 renal
A498 renal = tested on: A498 renal
A549 NSCLC = tested on: A549 NSCLC
ACHN renal = tested on: ACHN renal
BT-549 breast = tested on: BT-549 breast
CAKI-1 renal = tested on: CAKI-1 renal
CCRF-CEM leukemia = tested on: CCRF-CEM leukemia
COLO 205 colon = tested on: COLO 205 colon
DU-145 prostate = tested on: DU-145 prostate
HCC-2998 colon = tested on: HCC-2998 colon
HCT-116 colon = tested on: HCT-116 colon
HCT-15 colon = tested on: HCT-15 colon
HL-60(TB) leukemia = tested on: HL-60(TB) leukemia
HOP-62 NSCLC = tested on: HOP-62 NSCLC
HOP-92 NSCLC = tested on: HOP-92 NSCLC
HS 578T breast = tested on: HS 578T breast
HT29 colon = tested on: HT29 colon
IGROV1 ovarian = tested on: IGROV1 ovarian
K-562 leukemia = tested on: K-562 leukemia
KM12 colon = tested on: KM12 colon
LOX IMVI melanoma = tested on: LOX IMVI melanoma
M14 melanoma = tested on: M14 melanoma
MALME-3M melanoma = tested on: MALME-3M melanoma
MCF7 breast = tested on: MCF7 breast
MDA-MB-231 breast = tested on: MDA-MB-231 breast
MDA-MB-435 = tested on: MDA-MB-435
MOLT-4 leukemia = tested on: MOLT-4 leukemia
NCI-H226 lung = tested on: NCI-H226 lung
NCI-H23 lung = tested on: NCI-H23 lung
NCI-H460 lung = tested on: NCI-H460 lung
NCI-H522 lung = tested on: NCI-H522 lung
NCI/ADR-RES ovarian = tested on: NCI/ADR-RES ovarian
OVCAR-3 ovarian = tested on: OVCAR-3 ovarian
OVCAR-4 ovarian = tested on: OVCAR-4 ovarian
OVCAR-5 ovarian = tested on: OVCAR-5 ovarian
OVCAR-8 ovarian = tested on: OVCAR-8 ovarian
PC-3 prostate = tested on: PC-3 prostate
RPMI-8226 leukemia = tested on: RPMI-8226 leukemia
RXF 393 renal = tested on: RXF 393 renal
SF-268 CNS = tested on: SF-268 CNS
SF-295 CNS = tested on: SF-295 CNS
SF-539 CNS = tested on: SF-539 CNS
SK-MEL-2 melanoma = tested on: SK-MEL-2 melanoma
SK-MEL-5 melanoma = tested on: SK-MEL-5 melanoma
SK-OV-3 ovarian = tested on: SK-OV-3 ovarian
SN12C renal = tested on: SN12C renal
SNB-19 CNS = tested on: SNB-19 CNS
SNB-75 CNS = tested on: SNB-75 CNS
SR leukemia = tested on: SR leukemia
SW-620 colon = tested on: SW-620 colon
TK-10 renal = tested on: TK-10 renal
U251 CNS = tested on: U251 CNS
UACC-257 melanoma = tested on: UACC-257 melanoma
UACC-62 melanoma = tested on: UACC-62 melanoma
UO-31 renal = tested on: UO-31 renal
EKVX NSCLC = tested on: EKVX NSCLC
SK-MEL-28 melanoma = tested on: SK-MEL-28 melanoma
T-47D breast = tested on: T-47D breast

COc1ccc2c(c1)N(CCO)C1=C(C(=O)OC1)C2c1cc(OC)c(OC)c(OC)c1 (stereo not drawn)
GI50 (786-0 renal): 67.9 nM | TGI (786-0 renal): > 50000 nM | GI50 (A498 renal): 14.7 nM | TGI (A498 renal): 61.6 nM | GI50 (A549 NSCLC): 26.6 nM | TGI (A549 NSCLC): > 50000 nM | GI50 (ACHN renal): 54.9 nM | TGI (ACHN renal): > 50000 nM | GI50 (BT-549 breast): 91.9 nM | TGI (BT-549 breast): > 50000 nM | GI50 (CAKI-1 renal): 85.2 nM | TGI (CAKI-1 renal): > 50000 nM | GI50 (CCRF-CEM leukemia): 23.1 nM | TGI (CCRF-CEM leukemia): > 50000 nM | GI50 (COLO 205 colon): 15 nM | TGI (COLO 205 colon): 38 nM | GI50 (DU-145 prostate): 26.1 nM | TGI (DU-145 prostate): 188 nM | GI50 (HCC-2998 colon): 63.9 nM | TGI (HCC-2998 colon): > 50000 nM | GI50 (HCT-116 colon): 17.4 nM | GI50 (HCT-15 colon): 62.2 nM | TGI (HCT-15 colon): > 50000 nM | GI50 (HL-60(TB) leukemia): 15 nM | GI50 (HOP-62 NSCLC): 26.5 nM | TGI (HOP-62 NSCLC): > 50000 nM | GI50 (HOP-92 NSCLC): 86.1 nM | TGI (HOP-92 NSCLC): > 50000 nM | GI50 (HS 578T breast): 27.9 nM | TGI (HS 578T breast): > 50000 nM | GI50 (HT29 colon): 14.1 nM | TGI (HT29 colon): 38.9 nM | GI50 (IGROV1 ovarian): 36.2 nM | TGI (IGROV1 ovarian): > 50000 nM | GI50 (K-562 leukemia): 19.6 nM | TGI (K-562 leukemia): > 50000 nM | GI50 (KM12 colon): 17.8 nM | GI50 (LOX IMVI melanoma): 25.8 nM | TGI (LOX IMVI melanoma): > 50000 nM | GI50 (M14 melanoma): 21.3 nM | TGI (M14 melanoma): > 50000 nM | GI50 (MALME-3M melanoma): 28.7 nM | TGI (MALME-3M melanoma): > 50000 nM | GI50 (MCF7 breast): 19.5 nM | TGI (MCF7 breast): > 50000 nM | GI50 (MDA-MB-231 breast): 55 nM | TGI (MDA-MB-231 breast): 246 nM | GI50 (MDA-MB-435): < 10.8 nM | TGI (MDA-MB-435): 27.2 nM | GI50 (MOLT-4 leukemia): 93.8 nM | TGI (MOLT-4 leukemia): > 50000 nM | GI50 (NCI-H226 lung): 22.8 nM | TGI (NCI-H226 lung): > 50000 nM | GI50 (NCI-H23 lung): 28.1 nM | TGI (NCI-H23 lung): > 50000 nM | GI50 (NCI-H460 lung): 19.6 nM | TGI (NCI-H460 lung): > 50000 nM | GI50 (NCI-H522 lung): 10.9 nM | TGI (NCI-H522 lung): 28.6 nM | GI50 (NCI/ADR-RES ovarian): 78.7 nM | TGI (NCI/ADR-RES ovarian): 2700 nM | GI50 (OVCAR-3 ovarian): 13.3 nM | TGI (OVCAR-3 ovarian): 32.2 nM | GI50 (OVCAR-4 ovarian): 31 nM | TGI (OVCAR-4 ovarian): > 50000 nM | GI50 (OVCAR-5 ovarian): 61.4 nM | TGI (OVCAR-5 ovarian): > 50000 nM | GI50 (OVCAR-8 ovarian): 19.9 nM | TGI (OVCAR-8 ovarian): 181 nM | GI50 (PC-3 prostate): 24.7 nM | TGI (PC-3 prostate): > 50000 nM | GI50 (RPMI-8226 leukemia): 28.7 nM | TGI (RPMI-8226 leukemia): > 50000 nM | GI50 (RXF 393 renal): 12.8 nM | TGI (RXF 393 renal): > 50000 nM | GI50 (SF-268 CNS): 33 nM | TGI (SF-268 CNS): > 50000 nM | GI50 (SF-295 CNS): 14 nM | TGI (SF-295 CNS): > 50000 nM | GI50 (SF-539 CNS): 17.6 nM | TGI (SF-539 CNS): > 50000 nM | GI50 (SK-MEL-2 melanoma): 26.7 nM | TGI (SK-MEL-2 melanoma): 18300 nM | GI50 (SK-MEL-5 melanoma): 17.1 nM | TGI (SK-MEL-5 melanoma): 71.4 nM | GI50 (SK-OV-3 ovarian): 23.1 nM | TGI (SK-OV-3 ovarian): > 50000 nM | GI50 (SN12C renal): 60.9 nM | TGI (SN12C renal): > 50000 nM | GI50 (SNB-19 CNS): 42.9 nM | TGI (SNB-19 CNS): > 50000 nM | GI50 (SNB-75 CNS): 19.8 nM | TGI (SNB-75 CNS): > 50000 nM | GI50 (SR leukemia): 25.2 nM | TGI (SR leukemia): > 50000 nM | GI50 (SW-620 colon): 19.6 nM | TGI (SW-620 colon): > 50000 nM | GI50 (TK-10 renal): 26.4 nM | TGI (TK-10 renal): > 50000 nM | GI50 (U251 CNS): 16.5 nM | TGI (U251 CNS): > 50000 nM | GI50 (UACC-257 melanoma): 22.6 nM | TGI (UACC-257 melanoma): > 50000 nM | GI50 (UACC-62 melanoma): 20.8 nM | TGI (UACC-62 melanoma): > 50000 nM | GI50 (UO-31 renal): 183 nM | TGI (UO-31 renal): > 50000 nM

CN(C)c1ccc(-c2[nH]c(=O)c3ccccc3[n+]2C)cc1
TGI (786-0 renal): > 100000 nM | TGI (A498 renal): > 100000 nM | TGI (A549 NSCLC): > 100000 nM | TGI (ACHN renal): > 100000 nM | TGI (CCRF-CEM leukemia): > 100000 nM | TGI (COLO 205 colon): > 100000 nM | TGI (DU-145 prostate): > 100000 nM | TGI (EKVX NSCLC): > 100000 nM | TGI (HCC-2998 colon): > 100000 nM | TGI (HCT-116 colon): > 100000 nM | TGI (HCT-15 colon): > 100000 nM | TGI (HL-60(TB) leukemia): > 100000 nM | TGI (HOP-62 NSCLC): > 100000 nM | TGI (HOP-92 NSCLC): > 100000 nM | TGI (HS 578T breast): > 100000 nM | TGI (HT29 colon): > 100000 nM | TGI (IGROV1 ovarian): > 100000 nM | TGI (K-562 leukemia): > 100000 nM | TGI (KM12 colon): > 100000 nM | TGI (M14 melanoma): > 100000 nM | TGI (MALME-3M melanoma): > 100000 nM | TGI (MCF7 breast): > 100000 nM | TGI (MDA-MB-231 breast): > 100000 nM | TGI (MDA-MB-435): > 100000 nM | TGI (MOLT-4 leukemia): > 100000 nM | TGI (NCI-H226 lung): > 100000 nM | TGI (NCI-H23 lung): > 100000 nM | TGI (NCI-H460 lung): > 100000 nM | TGI (NCI/ADR-RES ovarian): > 100000 nM | TGI (OVCAR-4 ovarian): > 100000 nM | TGI (OVCAR-5 ovarian): > 100000 nM | TGI (OVCAR-8 ovarian): > 100000 nM | TGI (RPMI-8226 leukemia): > 100000 nM | TGI (RXF 393 renal): > 100000 nM | TGI (SF-268 CNS): > 100000 nM | TGI (SF-295 CNS): > 100000 nM | TGI (SF-539 CNS): > 100000 nM | TGI (SK-MEL-28 melanoma): > 100000 nM | TGI (SK-MEL-5 melanoma): > 100000 nM | TGI (SK-OV-3 ovarian): > 100000 nM | TGI (SN12C renal): > 100000 nM | TGI (SNB-19 CNS): > 100000 nM | TGI (SNB-75 CNS): > 100000 nM | TGI (SR leukemia): > 100000 nM | TGI (SW-620 colon): > 100000 nM | TGI (T-47D breast): > 100000 nM | TGI (TK-10 renal): > 100000 nM | TGI (U251 CNS): > 100000 nM | TGI (UACC-257 melanoma): > 100000 nM | TGI (UACC-62 melanoma): > 100000 nM | TGI (UO-31 renal): > 100000 nM
